Test results from US20260176289A1, “SMALL MOLECULE INHIBITORS OF KRAS PROTEINS” (Merck Sharp & Dohme LLC, priority 2022, published 2026).
Like-named read-outs stand apart in the source and are kept apart here.

Assays:
KRAS-G12V = KRAS-G12V (Homo sapiens, UniProt P01116, G12V); assay: SOS-catalyzed nucleotide exchange assay (Procedure A, TR-FRET), KRAS-G12V; format: biochemical
Summary of the method: (§1)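 TR-FRET 520/495 nm ratio read after SOS-driven exchange of Bodipy-GDP for unlabeled GTP (3 mM) on biotinylated RAS bound to Tb-streptavidin. There was a 60 min compound preincubation, RT. Final RAS/SOS and reaction times: G12C 3 nM/40 nM; WT 1 nM/40 nM; NRAS 1.25 nM/40 nM, each 60 min. G12V was 1.25 nM/160 nM, 90 min.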

[1] = target: KRAS-G12C (C51S/C80L/C118S) (Homo sapiens, UniProt P01116, C118S/C51S/C80L/G12C); assay: SOS-catalyzed nucleotide exchange assay (Procedure A, TR-FRET), KRAS-G12C; format: biochemical; details: nucleotide exchange, Procedure A; read-out: KRAS G12C GNE IC50
Description: (§2) Procedure for SOS-Catalyzed Nucleotide Exchange Assay for KRAS-WT, G12C/D/V, G13D, HRAS, and NRAS (Procedure A)
(§3) Recombinant KRAS-G12C protein used in this assay has an additional triple mutation (C51S/C80L/C118S). Whereas KRAS-WT, G12D/V, G13D, HRAS and NRAS are in context of their WT protein sequence background. Specifically, the SOS-catalyzed nucleotide exchange assay utilizes a preformed TR-FRET complex containing a specific biotinylated RAS protein (KRAS-WT, G12C/V/D, G13D, HRAS, NRAS; described above) with Bodipy-GDP, and Terbium-streptavidin. Compounds are preincubated with this complex for 60 minutes. Subsequently, recombinant human SOS protein and unlabeled GTP are added to initiate the exchange reaction. Small molecule inhibitors stabilize the Bodipy-GDP complex whereas the untreated protein rapidly exchanges Bodipy-GDP for unlabeled GTP resulting in reduced TR-FRET signal.
(§4) To assemble the preformed TR-FRET complexes, each biotinylated RAS protein is diluted to 2 μM in an EDTA Buffer (20 mM HEPES pH 7.5, 50 mM sodium chloride, 10 mM EDTA, and 0.01% Tween) and incubated at room temperature for one hour. This mixture is then further diluted to 90 nM in an Assay Buffer (20 mM HEPES pH 7.5, 150 mM sodium chloride, 10 mM magnesium chloride, and 0.005% Tween) containing 15 nM of Terbium-Streptavidin (Invitrogen, catalog #PV3577) and 900 nM of Bodipy-GDP (Invitrogen, catalog #G22360) and incubated at room temperature for six hours. It should be noted that this preformed TR-FRET complex for each of the RAS protein were made ahead of time, aliquoted and stored at −80° C. until the day of the experiment.
(§5) Each test compound (10 mM stock in DMSO) is diluted in DMSO to make a final-10-point, 3-fold dilution and is acoustically dispensed into a 384-well assay plate (Corning, catalog #3820) using an Echo 550 (Labcyte). Each well of the assay plate receives 3 μL of a specific 3×RAS preformed TR-FRET complex and 3 μL of Assay Buffer and is incubated at room temperature for 60 minutes (preincubation time). Each well then receives 3 μL of 3×recombinant human SOS protein and GTP (Sigma, G8877) in Assay Buffer and is incubated at room temperature for 30 minutes (G13D), 60 minutes (KRAS WT/G12C/D, H/NRAS) or 90 minutes for G12V. The final reaction in each well of 9 μL consists of 3 mM GTP, specific Ras and SOS proteins in the following concentrations: KRAS-G12C/SOS=3 nM/40 nM, KRAS-WT and G12D/SOS=1 nM/40 nM, KRAS-G12V/SOS=1.25 nM/160 nM. KRAS-G13D/SOS=1.25 nM/0 nM, HRAS and NRAS=1.25 nM/40 nM.
(§6) The time-resolved fluorescence resonance energy transfer (TR-FRET) signal is measured on an Envision (PerkinElmer) plate reader: Excitation filter=340 nm; emission 1=495 nm; emission2=520 nm; dichroic mirror=D400/D505; delay time=[…]. The signal of each well is determined as the ratio of the emission at 520 nm to that at 495 nm. Percent effect of each well is determined after normalization to control wells containing DMSO (no effect) or a saturating concentration of inhibitor (max effect). The apparent effect as a function of compound concentration is fit to a four-parameter logistic equation.

KRAS-WT = KRAS-WT (Homo sapiens, UniProt P01116); assay: SOS-catalyzed nucleotide exchange assay (Procedure A, TR-FRET), KRAS-WT; format: biochemical
Summary of the method: as §1

KRAS-G12D = KRAS-G12D (Homo sapiens, UniProt P01116, G12D); assay: SOS-catalyzed nucleotide exchange assay (Procedure A, TR-FRET), KRAS-G12D; format: biochemical
Summary of the method: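 Signal ratio (520/495 nm, excitation 340 nm) reports Bodipy-GDP retention on biotinylated RAS after SOS-catalyzed exchange with 3 mM GTP. SOS was 40 nM, except 160 nM for G12V. Room-temperature exchange lasted 60 min (90 min for G12V), following a 60 min compound preincubation.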

KRAS-G13D = KRAS-G13D (Homo sapiens, UniProt P01116, G13D); assay: SOS-catalyzed nucleotide exchange assay (Procedure A, TR-FRET), KRAS-G13D; format: biochemical; details: nucleotide exchange, Procedure A; read-out: KRAS G13D GNE IC50
Description: as §2, §3, §4, §5, §6

AsPC-1 cells = assay: Cellular phospho-ERK assay, AsPC-1 cells (homozygous KRAS-G12D); format: cell-based; details: Homo sapiens, read-out: AsPC1 pERK IC50
Summary of the method: (§7)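 Cells seeded at 10,000-15,000 per well were incubated overnight, then exposed to compound for 2 hours at 37 °C in a 10-point, 1:3 series topping at 30 μM final. Lysates were assayed by Alpha SureFire Ultra multiplex for p-ERK and total ERK; IC50 came from a 4-parameter logistic fit of their ratio.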

SW620 cells = assay: Cellular phospho-ERK assay, SW620 cells (homozygous KRAS-G12V); format: cell-based; details: Homo sapiens, read-out: SW620 pERK IC50
Summary of the method: as §7

MKN-1 cells = assay: Cellular phospho-ERK assay, MKN-1 cells (amplified wild-type KRAS); format: cell-based; details: Homo sapiens, read-out: MKN1 pERK IC50
Summary of the method: as §7

[2] = nucleotide exchange, read-out: KRAS G12V GNE IC50
[3] = nucleotide exchange, read-out: KRAS WT GNE IC50
[4] = nucleotide exchange, read-out: KRAS G12D GNE IC50
[5] = ASPC1, 2 h, 2 hours compound incubation
[6] = amplified wild-type KRAS, 2 hours

Sequence of KRAS-G12V (P01116 with tags, fused parts or gaps isoform P01116-2 G12V): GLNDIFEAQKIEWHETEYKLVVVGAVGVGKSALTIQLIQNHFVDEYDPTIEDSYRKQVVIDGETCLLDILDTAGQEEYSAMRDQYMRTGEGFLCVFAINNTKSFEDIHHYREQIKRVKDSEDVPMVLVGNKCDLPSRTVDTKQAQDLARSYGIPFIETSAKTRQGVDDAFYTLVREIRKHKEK
Sequence of KRAS-G12D (P01116 with tags, fused parts or gaps isoform P01116-2 G12D): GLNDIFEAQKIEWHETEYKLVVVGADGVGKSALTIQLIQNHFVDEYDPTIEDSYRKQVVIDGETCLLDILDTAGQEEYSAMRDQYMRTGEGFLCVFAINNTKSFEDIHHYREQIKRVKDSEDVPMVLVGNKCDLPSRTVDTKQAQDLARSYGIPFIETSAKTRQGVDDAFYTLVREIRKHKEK
Sequence of KRAS-G12C (C51S/C80L/C118S) (P01116 with tags, fused parts or gaps isoform P01116-2 G12C/C51S/C80L/C118S): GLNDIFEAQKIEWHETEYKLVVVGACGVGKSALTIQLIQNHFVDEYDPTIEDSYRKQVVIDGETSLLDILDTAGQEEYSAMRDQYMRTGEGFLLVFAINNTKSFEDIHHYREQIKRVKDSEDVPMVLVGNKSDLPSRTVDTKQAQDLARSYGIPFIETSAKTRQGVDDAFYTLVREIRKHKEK
Sequence of KRAS-G13D (P01116 with tags, fused parts or gaps isoform P01116-2 G13D): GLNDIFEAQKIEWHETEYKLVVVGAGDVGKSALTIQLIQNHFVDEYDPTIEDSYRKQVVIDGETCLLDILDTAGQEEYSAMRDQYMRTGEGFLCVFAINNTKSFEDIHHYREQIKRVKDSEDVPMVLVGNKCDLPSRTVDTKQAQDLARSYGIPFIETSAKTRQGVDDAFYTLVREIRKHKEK
Sequence of KRAS-WT (P01116 with tags, fused parts or gaps isoform P01116-2): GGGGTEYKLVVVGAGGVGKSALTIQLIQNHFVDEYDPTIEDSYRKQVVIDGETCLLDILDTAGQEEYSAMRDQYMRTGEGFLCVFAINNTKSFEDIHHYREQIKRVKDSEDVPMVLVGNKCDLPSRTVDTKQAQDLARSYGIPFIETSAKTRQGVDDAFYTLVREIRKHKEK

SMILES	IC50 (KRAS-G12V; [2])	IC50 [1]	IC50 (KRAS-WT; [3])	IC50 (KRAS-G12D; [4])	IC50 (KRAS-G13D)	IC50 (AsPC-1 cells; ASPC1, 2 h, KRAS-G12D, 2 hours)	IC50 (AsPC-1 cells; [5])	IC50 (SW620 cells; SW-620, 2 hours compound incubation)	IC50 (MKN-1 cells; 2 hours compound incubation)	IC50 (SW620 cells; SW-620, KRAS-G12V, 2 hours)	IC50 (MKN-1 cells; [6])	IC50 (KRAS-G12V; KRAS G12V GNE IC50, nucleotide exchange)	IC50 (AsPC-1 cells; ASPC1, KRAS-G12D, 2 hours)	IC50 (KRAS-WT; KRAS WT GNE IC50, nucleotide exchange)	IC50 (KRAS-G12D; KRAS G12D GNE IC50, nucleotide exchange)
Cc1nc2[nH]nc(C)c2c(-c2nccc3c4c(N5CCOC[C@@](C)(O)C5)nc(OC[C@@]56CCCN5C[C@H](F)C6)nc4n(C)c23)c1C(F)(F)F [Ex-15, (6S)-4-(8-(3,6-dimethyl-5-(trifluoromethyl)-1H-pyrazolo[3,4-b]pyridin-4-yl)-2-(((2R,7aS)-2-fluorotetrahydro-1H-pyrrolizin-7a(5H)-yl)methoxy)-9-methyl-9H-pyrido[4′,3′:4,5]pyrrolo[2,3-d]pyrimidin-4-yl)-6-methyl-1,4-oxazepan-6-ol]	4930 nM	1970 nM	8020 nM	9040 nM	5380 nM	–	–	–	–	–	–	–	–	–	–
CC1(O)COCCN(c2nc(OCC34CCCN3CC(F)C4)nc3sc4c(-c5c(C6CC6)c(F)cc6[nH]ncc56)nccc4c23)C1 [Ex-47, (6S)-4-(8-(5-cyclopropyl-6-fluoro-1H-indazol-4-yl)-2-(((2R,7aS)-2-fluorotetrahydro-1H-pyrrolizin-7a(5H)-yl)methoxy)pyrido[4′,3′:4,5]thi-eno[2,3-d]pyrimidin-4-yl)-6-methyl-1,4-oxazepan-6-ol]	55 nM	17.9 nM	101 nM	32 nM	32.6 nM	385 nM	–	–	–	–	–	–	–	–	–
C/C=C(\C)c1c(C)cc2[nH]ncc2c1-c1nccc2c1sc1nc(OC[C@@]34CCCN3C[C@H](F)C4)nc(N3CCOC[C@@](C)(O)C3)c12 [Ex-65, (6S)-4-(8-(5-((E)-but-2-en-2-yl)-6-methyl-1H-indazol-4-yl)-2-(((2R,7aS)-2-fluorotetrahydro-1H-pyrrolizin-7a(5H)-yl)methoxy)pyrido[4′,3′:4,5]thi-eno[2,3-d]pyrimidin-4-yl)-6-methyl-1,4-oxazepan-6-ol]	65.3 nM	362 nM	184 nM	69.3 nM	172 nM	560 nM	–	–	–	–	–	–	–	–	–
Cc1cc2[nH]ncc2c(-c2nccc3c2sc2nc(OC[C@@]45CCCN4C[C@H](F)C5)nc(N4CCOC[C@@](C)(O)C4)c23)c1-c1cccs1 [Ex-138, (6S)-4-(2-(((2R, 7aS)-2-fluorotetra-hydro-1H-pyrrolizin-7a(5H)-yl)methoxy)-8-(6-methyl-5-(thio-phen-2-yl)-1H-ind-azol-4-yl)pyrido [4′,3′:4,5]thieno[2,3-d]pyrimidin-4-yl)-6-methyl-1,4-oxaze-pan-6-ol]	245 nM	120 nM	398 nM	150 nM	337 nM	–	703 nM	–	–	–	–	–	–	–	–
CN(C)C[C@@]1(COc2nc(N3CCOC[C@@](C)(O)C3)c3c(n2)sc2c(-c4c(C5CC5)c(C(F)(F)F)cc5[nH]ncc45)nccc23)CC1(F)F [Ex-206, (6S)-4-(8-(5-cyclo-propyl-6-(trifluoro-methyl)-1H-inda-zol-4-yl)-2-(((R)-1-((dimethylamino)-methyl)-2,2-difluorocycloprop-yl)methoxy)pyrido [4′,3′:4,5]thieno [2,3-d]pyrimidin-4-yl)-6-methyl-1,4-oxazepan-6-ol]	22.2 nM	3.57 nM	23.5 nM	7.07 nM	–	–	24 nM	15.4 nM	22.9 nM	–	–	–	–	–	–
C[C@@]1(O)COCCN(c2nc(OC[C@@]34CCCN3C[C@H](F)C4)nc3sc4c(-c5ccc(F)c6sc(N)c(C#N)c56)nccc4c23)C1 [Ex-275, 2-amino-7-fluoro-4-(2-(((2R,7aS)-2-fluoro-tetrahydro-1H-pyrrolizin-7a(5H)-yl)methoxy)-4-((S)-6-hydroxy-6-methyl-1,4-oxazepan-4-yl)pyrido[4′,3′:4,5]thi-eno[2,3-d]pyrimidin-8-yl)benzo[b]thiophene-3-carbonitrile]	2950 nM	2220 nM	1520 nM	1310 nM	1200 nM	–	–	–	–	–	–	–	–	–	–
C[C@@]1(O)COCCN(c2nc(OC[C@@]34CCCN3C[C@H](F)C4)nc3sc4c(-c5c(C6(F)CC6)c(C(F)(F)F)cc6[nH]ncc56)nncc4c23)C1 [Ex-283, (6S)-4-(8-(5-(1-fluorocyclopropyl)-6-(trifluoromethyl)-1H-indazol-4-yl)-2-(((2R,7aS)-2-fluorotetrahydro-1H-pyrrolizin-7a(5H)-yl)methoxy)pyrimido [5′,4′:4,5]thieno[2,3-d]pyridazin-4-yl)-6-methyl-1,4-oxazepan-6-ol]	15.4 nM	–	14.5 nM	5.26 nM	–	244 nM	–	–	–	41.5 nM	77.4 nM	–	–	–	–
C[C@@]1(O)COCCN(c2nc(OC[C@@]34CCCN3C[C@H](F)C4)nc3[se]c4c(-c5c(C6CC6)c(Cl)cc6[nH]ncc56)nccc4c23)C1 [Ex-289, (6S)-4-(8-(6-chloro-5-cyclopropyl-1H-indazol-4-yl)-2-(((2R,7aS)-2-fluorotetrahydro-1H-pyrrolizin-7a(5H)-yl)methoxy)pyri-do[4′,3′:4,5]seleno-pheno[2,3-d]pyrimidin-4-yl)-6-methyl-1,4-oxazepan-6-ol]	–	–	–	–	–	–	–	–	–	64.6 nM	81.4 nM	26.9 nM	103 nM	22.3 nM	6.97 nM
C[C@@]1(O)COCCN(c2nc(OC[C@@]34CCCN3C[C@H](F)C4)nc3c(F)c4c(-c5c(C6CC6)c(Cl)cc6[nH]ncc56)nccn4c23)C1 [Ex-305, (S)-4-(9-(6-chloro-5-cyclopropyl-1H-indazol-4-yl)-10-fluoro-2-(((2R,7aS)-2-fluorotetrahydro-1H-pyrrolizin-7a(5H)-yl)methoxy)pyrazino[1′,2′:1,5]pyrrolo[3,2-d]pyrimidin-4-yl)-6-methyl-1,4-oxazepan-6-ol]	23.8 nM	–	37 nM	11.6 nM	–	212 nM	–	–	–	54.7 nM	93 nM	–	–	–	–
